Laboratory results: paper PMC6450673, “Targeted degradation of aberrant tau in frontotemporal dementia patient-derived neuronal cell models” (eLife, 2019)

Key:
monoamine oxidase (MAO) = assay: Monoamine oxidase (MAO-Glo) activity assay; assay type: biochemical; conditions: four parameter fit
Protocol: The Monoamine oxidase (MAO) activity measurements were performed using a MAO-Glo assay kit (Promega, Madison, WI), in a 384-well plate (Proxiplate 384 Plus, Perkin Elmer, Waltham, MA) with the miniaturization of final assay volume to 20 µL, as per the manufacturer’s instructions. In brief, MAO reactions were terminated after a 60-min enzymatic reaction, by the addition of reconstituted Luciferin Detection Reagent. Following a 20-min incubation with the detection reagent, the luminescence was measured using a multi-label plate reader (Envision, Perkin Elmer). IC50 values were estimated by fitting percentage inhibition vs. compound concentration in a variable slope (four parameter) fit.

[1] = target: T1, total tau (TAU5) in control-1 8330–8-RC1 neurons (Homo sapiens, UniProt P10636); assay: Western blot of total tau in control line 1 neurons; assay type: cell-based; conditions: control line 1, western blot, 1 μM, 24 hr
T1 construct: modeling pathogenic tau species without the need for overexpression of heterologous genes; endogenous in cells; host or cells: 8330-8-RC1, MGH2069-RC1, CTR2-L17-RC2 human iPSC-derived neurons
T1 sequence (P10636 1-441 isoform P10636-8): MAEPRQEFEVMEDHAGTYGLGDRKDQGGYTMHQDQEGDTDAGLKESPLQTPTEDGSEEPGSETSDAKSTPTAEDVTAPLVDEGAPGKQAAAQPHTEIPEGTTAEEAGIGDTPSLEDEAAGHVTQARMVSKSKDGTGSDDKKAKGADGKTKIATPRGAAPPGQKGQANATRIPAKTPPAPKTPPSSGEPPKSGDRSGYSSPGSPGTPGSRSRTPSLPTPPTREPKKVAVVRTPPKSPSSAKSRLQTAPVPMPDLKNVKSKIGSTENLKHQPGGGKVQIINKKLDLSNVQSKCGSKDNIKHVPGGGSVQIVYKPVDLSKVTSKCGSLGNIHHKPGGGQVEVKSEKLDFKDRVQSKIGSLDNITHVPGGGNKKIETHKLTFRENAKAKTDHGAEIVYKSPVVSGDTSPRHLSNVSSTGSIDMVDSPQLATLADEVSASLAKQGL
Source text: (§1) Cells from individuals carrying the tau risk variant A152T (c.1407G > A; NCBI RefSeq NM_001123066, rs143624519), the autosomal dominant mutation P301L (c.C1907T; NCBI NM_001123066, rs63751273), or age-matched non-mutant WT tau were employed in this study (Figure 2—source data 1). Dermal fibroblasts from the tau-P301L carrier and the healthy individual were generated from a skin biopsy from subjects within the MGH Frontotemporal Disorders Unit as part of the MGH Neurodegeneration Repository. Approval for human subjects’ work was obtained under a Partners/MGH-approved IRB Protocol (#2010P001611/MGH). […]
(§2) Neurons differentiated in six-well plates for 6 weeks were washed and collected in PBS, lysed in RIPA buffer (Boston Bio-Products, Boston, MA) supplemented with 2% SDS (Sigma), protease inhibitors cocktail (Roche Complete Mini tablets, Mannheim, Germany), and phosphatase inhibitors cocktail (Sigma), followed by water sonication (Bransonic Ultrasonic Baths, Thomas Scientific, Danbury, CT) and 20,000 g centrifugation for 20 min. Supernatants were transferred to new tubes and total protein concentration was quantified with the Pierce BCA Protein Assay Kit (ThermoFisher Scientific, Carlsbad, CA). […]

[2] = target: T2, P-tau S396 in control-1 8330–8-RC1 neurons (Homo sapiens, UniProt P10636); assay: Western blot of P-tau S396 in control line 1 neurons; assay type: cell-based; conditions: control line 1, western blot, 1 μM, 24 hr
T2 construct: modeling pathogenic tau species without the need for overexpression of heterologous genes; endogenous in cells; host or cells: 8330-8-RC1, MGH2069-RC1, CTR2-L17-RC2 human iPSC-derived neurons
T2 sequence (P10636 1-441 isoform P10636-8): as above
Source text: as §1, §2

[3] = Neuronal stress and viability assay, rescue of Aβ(1-42) toxicity (Alamar Blue); assay type: cell-based, human; conditions: human, A152T neurons differentiated from NPCs for 8 weeks, 5μM compound alone, replicates I-VI; read-out: % Viability (Relative to Vehicle)

SMILES | IC50 (monoamine oxidase (MAO); 60-min reaction, read-out: MAO Dose Response IC50) | MAO Dose Response Hill Slope (monoamine oxidase (MAO)) | degradation of tau [1] | degradation of P-tau [2] | viability at 24 h, 5 µM [3]
O=C(CCc1ccc2c(c1)[nH]c1ccncc12)NCCOCCOCCNc1cccc2c1C(=O)N(C1CCC(=O)NC1=O)C2=O (centres unmarked) [QC-01–175] | 8.56 µM | 0.301 | unable to induce significant degradation | unable to induce significant degradation | 
O=C(CCc1ccc2c(c1)[nH]c1ccncc12)NCCOCCOCCNc1cccc2c1C(=O)N(C1CCCNC1=O)C2=O (centres unmarked) [QC-03–075] |  |  |  |  | 104%
